From patent publication US20200038399A1, “FORMULATIONS, METHODS, KIT, AND DOSAGE FORMS FOR TREATING BACTERIAL INFECTION” (Motif BioSciences Inc., priority 2016, published 2020)
Positions of bridges follow the written chain, without caps; N, C: chain ends. Non-standard residues stand in square brackets, D forms with d. Residues, ends and D or L forms follow the SMILES beside them. *: point of attachment. Ileψ(thiazoline)Cys = CC[C@H](C)[C@H](N)C1=N[C@H](C(=O)*)CS1; dOrn = NCCC[C@@H](N)C(=O)O

Columns and labels:
[1] = tested on: S. aureus 101; experiment: checkerboard synergy assay with iclaprim; assay type: cell-based, Staphylococcus aureus; conditions: antibiotic in combination with iclaprim
Method: (§1) The synergistic potential of iclaprim against Gram-positive and Gram-negative bacteria was determined using the checkerboard assay as described in Eliopoulos GM and Moellering, Jr. RC (1991), Antimicrobial combinations, pp. 432-492, in V. Lorian (ed.), Antibiotics in laboratory medicine, 3rd Ed., The Williams & Wilkins Co., Baltimore, the entire disclosure of which is herein incorporated by reference, allowing multiple test concentrations of iclaprim to be assayed in the presence of various concentrations of the other antibiotic in microtiter plates. The same growth media and conditions were used as described in 3.2 below.
(§2) Two different dilutions were used for iclaprim depending on the MIC determined for the bacterium. […] Iclaprim and the other antibiotic being tested were also dispensed alone in the last row and in the last column, respectively, as controls.
(§3) The Fractional Inhibitory Concentrations (FIC) for each added agent were calculated and used to determine the sum of FIC (ΣFIC) indicative of the synergistic potential of a given combination as described in Veyssier P. (1999), Inhibiteurs de la dihydrofolate reductase, nitrohétérocycles (furanes) et 8-hydroxyquinoleines, pp. 995-1027, in A. Bryskier (ed.), Antibiotiques agents antibatériens et antifongiques, 1st Ed., Ellipses Edition Marketing SA, Paris, the entire disclosure of which is herein incorporated by reference. Synergy was defined whereby the ΣFIC was <0.5, indifference (no synergy nor antagonism) whereby ΣFIC was ≥0.5 but ≤4, and antagonism whereby ΣFIC was >4. Additivity as a special form of indifference was defined whereby the ΣFIC was ≥0.5 but <1, for example as described in Stevens, D L et al. (1998), In vitro antimicrobial effects of various combinations of penicillin and clindamycin against four strains of Streptococcus pyogenes, J. Antimicrob. Chemother. 42: 1266-1268, the entire disclosure of which is herein incorporated by reference.

[2] = tested on: S. pneumoniae 1/1; experiment: checkerboard synergy assay with iclaprim; assay type: cell-based, Streptococcus pneumoniae; conditions: antibiotic in combination with iclaprim
Method: as §1, §2, §3

[3] = tested on: Haemophilus influenzae ATCC 49766; experiment: checkerboard synergy assay with iclaprim; assay type: cell-based; conditions: antibiotic in combination with iclaprim; H. influenzae 49766
Method: as §1, §2, §3

[4] = tested on: Moraxella catarrhalis RA 21; experiment: checkerboard synergy assay with iclaprim; assay type: cell-based; conditions: antibiotic in combination with iclaprim; M. catarrhalis RA 21
Method: as §1, §2, §3

[5] = tested on: Streptococcus pneumoniae ATCC 49619; experiment: checkerboard synergy assay with iclaprim; assay type: cell-based; conditions: antibiotic in combination with iclaprim; S. pneumoniae 49619
Method: as §1, §2, §3

[6] = tested on: Klebsiella pneumoniae ATCC 33495; experiment: checkerboard synergy assay with iclaprim; assay type: cell-based; conditions: antibiotic in combination with iclaprim; K. pneumoniae 33495
Method: as §1, §2, §3

[7] = tested on: Staphylococcus aureus ATCC 25923; experiment: checkerboard synergy assay with iclaprim; assay type: cell-based; conditions: antibiotic in combination with iclaprim; S. aureus 25923
Method: as §1, §2, §3

[8] = tested on: S. pneumoniae 1/1; experiment: MIC determination; assay type: cell-based, Streptococcus pneumoniae; conditions: S. pneumoniae 1/1, 18 hours at 37° C., 5% CO2; for MIC: Streptococcus pneumoniae, read-out: Minimum inhibitory concentrations (MIC)
Method: (§4) Minimum inhibitory concentration (MIC) determination.
(§5) In order to choose the appropriate concentrations to be tested in the checkerboard experiments, minimum inhibitory concentrations (MICs) were determined first. […] Table 6) in microtiter plates. Stock solutions (10 mg/ml) of reference antibiotics were prepared in DMSO (except for tobramycin, gentamicin, lomefloxacin, tetracycline) and stored at 4° C. The bacteria were grown in Mueller-Hinton Broth (BBL Mueller-Hinton Broth II, cation adjusted). S. pneumoniae was grown in Mueller-Hinton Broth supplemented with 5% (v/v) lysed sheep blood. For the growth of H. influenzae HTM (Haemophilus test medium) was used containing Mueller-Hinton broth, yeast extract ([…], Difco) and supplemented with NAD and hematin (HTM Supplement, Oxoid SR0158E). M. catarrhalis was grown in Brain Heart Infusion medium (Oxoid). The bacteria were incubated for 18 hours at 37° C. in ambient air except for S. pneumoniae, H. influenzae and M. catarrhalis, which were incubated in the presence of 5% CO2. The MIC was determined as the lowest concentration of an individual drug that lead to no visible growth.

[9] = tested on: S. aureus 101; experiment: MIC determination; assay type: cell-based, Staphylococcus aureus; conditions: for MIC: Staphylococcus aureus, 101, 18 h, read-out: Minimum inhibitory concentrations (MIC)
Method: as §4, §5

[10] = tested on: Haemophilus influenzae ATCC 49766; experiment: MIC determination; assay type: cell-based; conditions: H. Influenza 49766, 18 hours at 37° C., 5% CO2; for MIC: Haemophilus influenzae, ATCC49766, read-out: Minimum inhibitory concentrations (MIC)
Method: as §4, §5

[11] = tested on: Moraxella catarrhalis RA 21; experiment: MIC determination; assay type: cell-based; conditions: M. catarrhalis RA 21, 18 hours at 37° C., 5% CO2; for MIC: Moraxella catarrhalis, RA21, read-out: Minimum inhibitory concentrations (MIC)
Method: as §4, §5

[12] = tested on: Streptococcus pneumoniae ATCC 49619; experiment: MIC determination; assay type: cell-based; conditions: S. pneumoniae 49619, 18 hours at 37° C., 5% CO2; for MIC: Streptococcus pneumoniae, ATCC49619, read-out: Minimum inhibitory concentrations (MIC)
Method: as §4, §5

[13] = tested on: Klebsiella pneumoniae ATCC 33495; experiment: MIC determination; assay type: cell-based; conditions: K. pneumonia 33495, 18 hours at 37° C.; for MIC: Klebsiella pneumoniae, ATCC33495, read-out: Minimum inhibitory concentrations (MIC)
Method: as §4, §5

[14] = tested on: Staphylococcus aureus ATCC 25923; experiment: MIC determination; assay type: cell-based; conditions: S. aureus 25923, 18 hours at 37° C.; for MIC: Staphylococcus aureus, ATCC25923, read-out: Minimum inhibitory concentrations (MIC)
Method: as §4, §5

| Compound | Σ FIC [1] | Σ FIC [2] | Con (Conclusion) [3] | Σ FIC [3] | Con (Conclusion) [4] | Σ FIC [4] | Σ FIC [5] | Con (Conclusion) [6] | Σ FIC [6] | Σ FIC [7] | MIC [8] [µg/mL] | MIC [9] [µg/mL] | MIC [10] [µg/mL] | MIC [11] [µg/mL] | MIC [12] [µg/mL] | MIC [13] [µg/mL] | MIC [14] [µg/mL] | further results |
| --- | --- | --- | --- | --- | --- | --- | --- | --- | --- | --- | --- | --- | --- | --- | --- | --- | --- | --- |
| Gentamicin | 1.01-1.50 | 1.06-1.50 | Ind (Indifference (Ind)) | 1.02-1.13 | Ind (Indifference (Ind)) | 1.00-1.25 | 0.75-1.13 | Ad (Additivity (Ad)) | 0.63-1.25 | 2.05-2.48 | – | – | – | – | – | – | – | Con (Conclusion) [1]: Ind (Indifference (Ind)); Con (Conclusion) [2]: Ind (Indifference (Ind)); Con (Conclusion) [5]: Ad (Additivity (Ad)); Con (Conclusion) [7]: Ind (Indifference (Ind)); Minimum inhibitory concentrations (MIC) [8]: 32 µg/mL; Minimum inhibitory concentrations (MIC) ([9]; S. aureus 101, 18 hours at 37° C.): >128 µg/mL; Minimum inhibitory concentrations (MIC) [10]: 2 µg/mL; Minimum inhibitory concentrations (MIC) [11]: 2 µg/mL; Minimum inhibitory concentrations (MIC) [12]: 32 µg/mL; Minimum inhibitory concentrations (MIC) [13]: 1 µg/mL; Minimum inhibitory concentrations (MIC) [14]: 0.5 µg/mL |
| CO[C@@]1(NC(=O)C(C(=O)O)c2ccc(O)cc2)C(=O)N2C(C(=O)O)=C(CSc3nnnn3C)CO[C@@H]21 (stereo partly shown) [Moxalactam] | 0.63-1.25 | 1.13-1.50 | Ind (Indifference (Ind)) | 1.06-1.50 | Ind (Indifference (Ind)) | 1.00-1.25 | 1.00-1.25 | Ad (Additivity (Ad)) | 0.75-1.25 | 0.56-1.25 | 4 | 4 | 1 | 2 | 1 | 8 | 1 | – |
| CC[C@H](C)[C@H](N)C1=N[C@H](C(=O)N[C@@H](CC(C)C)C(=O)N[C@H](CCC(=O)O)C(=O)N[C@H](C(=O)N[C@H]2CCCCNC(=O)[C@H](CC(N)=O)NC(=O)[C@@H](CC(=O)O)NC(=O)[C@H](Cc3cnc[nH]3)NC(=O)[C@@H](Cc3ccccc3)NC(=O)[C@H]([C@@H](C)CC)NC(=O)[C@@H](CCCN)NC2=O)[C@@H](C)CC)CS1 [Bacitracin] ({Ileψ(thiazoline)Cys}-L[dE]IK[dOrn]I[dF]H[dD]N; lactam 4-C) | 0.75-1.13 | 0.51-1.06 | Ind (Indifference (Ind)) | 1.01-1.50 | Ad (Additivity (Ad)) | 0.56-1.25 | 0.75-1.13 | Ind (Indifference (Ind)) | 1.01-1.50 | 0.74-1.13 | 8 | 32 | > 128 | 8 | 32 | > 128 | > 128 | – |
